System: 5α-reductase
Assay: Inhibition of 5α-reductase in vivo (castrated male rats, organ weights and LH/FSH after 10 daily doses)
Set-up: species or system albino rats
Description: The in vivo testing was carried out as follows:
Adult male albino rats weighing 200 g were castrated. Two hours later they received the first of 10 daily dosages of the test substance suspended in 0.5% carboxymethylcellulose, 0.4% Tween 80 and 0.9% benzyl alcohol in physiological sodium chloride solution. Three hours after the last medication on the tenth day of treatment, the animals were decapitated, the blood from the body was collected, and the seminal vesicles, the ventral prostate and the Levator ani muscle were removed and weighed. The results are given as ng of NIAMDD-RP-1/ml.
VP: Ventral prostrate, SV: Seminal vesicle, MLA: Levator ani muscle
LH: Luteinizing hormone, FSH: Follicle stimulating hormone

[1] = L sc 15 mg/kg + TP sc 0.5 mg/kg
[2] = A sc 15 mg/kg + TP sc 0.5 mg/kg
[3] = T sc 0.5 mg/kg alone, experiment with F
[4] = T sc 0.5 mg/kg alone, experiment with L po
[5] = Testosterone sc 0.5 mg/kg alone, experiment with D
[6] = TP 0.5 mg/kg alone, experiment with A
[7] = TP sc 0.5 mg/kg alone, experiment with L sc

COC(=O)C1=CCC[C@H]2[C@@H]3CCC4=CC(=O)CC[C@]4(C)[C@H]3CC[C@]12C [Test substance L, methyl 3-oxo-D-homo-androsta-4,17-diene-17a-carboxylate]
MLA (Levator ani muscle weight) (L po 30 mg/kg + T sc 0.5 mg/kg): 88 ± 17 mg | SV (seminal vesicle weight) (L po 30 mg/kg + T sc 0.5 mg/kg): 68 ± 13 mg | VP (ventral prostate weight) (L po 30 mg/kg + T sc 0.5 mg/kg): 81 ± 16 mg | FSH (follicle stimulating hormone) [1]: 1099 ± 94 ng/mL | LH (luteinizing hormone) [1]: 163 ± 30 ng/mL | MLA (Levator ani muscle weight) [1]: 67 ± 6 mg | SV (seminal vesicle weight) [1]: 52 ± 1 mg | VP (ventral prostate weight) [1]: 80 ± 6 mg

C[C@]12CC[C@H]3[C@@H](CCC4=CC(=O)CC[C@@]43C)[C@@H]1CCC[C@@H]2C(=O)O [Test substance A, 3-oxo-D-homo-androst-4-ene-17aα-carboxylic acid]
FSH (follicle stimulating hormone) [2]: 1268 ± 125 ng/mL | LH (luteinizing hormone) [2]: 283 ± 41 ng/mL | MLA (Levator ani muscle weight) [2]: 118 ± 8 mg | SV (seminal vesicle weight) [2]: 157 ± 15 mg | VP (ventral prostate weight) [2]: 116 ± 11 mg

C[C@]12CC[C@H]3[C@@H](CCC4=CC(=O)CC[C@@]43C)[C@@H]1CC[C@@H]2O [T, Testosterone]
LH (luteinizing hormone) [3]: 96 ± 37 ng/mL | MLA (Levator ani muscle weight) [3]: 126 ± 7 mg | SV (seminal vesicle weight) [3]: 85 ± 7 mg | VP (ventral prostate weight) [3]: 128 ± 12 mg | MLA (Levator ani muscle weight) [4]: 109 ± 8 mg | SV (seminal vesicle weight) [4]: 92 ± 13 mg | VP (ventral prostate weight) [4]: 96 ± 10 mg | FSH (follicle stimulating hormone) [5]: 1206 ± 114 ng/mL | LH (luteinizing hormone) [5]: 104 ± 25 ng/mL | MLA (Levator ani muscle weight) [5]: 108 ± 5 mg | SV (seminal vesicle weight) [5]: 65 ± 5 mg | VP (ventral prostate weight) [5]: 112 ± 10 mg

COC(=O)[C@H]1CCC[C@H]2[C@@H]3CCC4=C(Cl)C(=O)CC[C@]4(C)[C@H]3CC[C@]12C [Test substance D, methyl 4-chloro-3-oxo-D-homo-androst-4-ene-17aβ-carboxylate]
FSH (follicle stimulating hormone) (D sc 10 mg/kg + T sc 0.5 mg/kg): 1325 ± 93 ng/mL | LH (luteinizing hormone) (D sc 10 mg/kg + T sc 0.5 mg/kg): 244 ± 45 ng/mL | MLA (Levator ani muscle weight) (D sc 10 mg/kg + T sc 0.5 mg/kg): 83 ± 6 mg | SV (seminal vesicle weight) (D sc 10 mg/kg + T sc 0.5 mg/kg): 51 ± 9 mg | VP (ventral prostate weight) (D sc 10 mg/kg + T sc 0.5 mg/kg): 95 ± 10 mg

CCC(=O)O[C@H]1CC[C@H]2[C@@H]3CCC4=CC(=O)CC[C@]4(C)[C@H]3CC[C@]12C [TP, Testosterone propionate]
FSH (follicle stimulating hormone) [6]: 783 ± 167 ng/mL | LH (luteinizing hormone) [6]: 101 ± 36 ng/mL | MLA (Levator ani muscle weight) [6]: 137 ± 7 mg | SV (seminal vesicle weight) [6]: 215 ± 13 mg | VP (ventral prostate weight) [6]: 160 ± 18 mg | FSH (follicle stimulating hormone) [7]: 915 ± 37 ng/mL | LH (luteinizing hormone) [7]: 121 ± 12 ng/mL | MLA (Levator ani muscle weight) [7]: 75 ± 4 mg | SV (seminal vesicle weight) [7]: 69 ± 3 mg | VP (ventral prostate weight) [7]: 108 ± 6 mg

C[C@]12CCC(=O)C=C1CC[C@@H]1[C@@H]2CC[C@@]2(C)[C@H]1CC=C[C@@]21CCCO1 [Test substance F, 4,5-dihydrospiro[furan-2(3H),17'a(β1)-D-homo-androsta-4,16-dien]-3'-one]
LH (luteinizing hormone) (F sc 10 mg/kg + T sc 0.5 mg/kg): 88 ± 15 ng/mL | MLA (Levator ani muscle weight) (F sc 10 mg/kg + T sc 0.5 mg/kg): 105 ± 6 mg | SV (seminal vesicle weight) (F sc 10 mg/kg + T sc 0.5 mg/kg): 66 ± 4 mg | VP (ventral prostate weight) (F sc 10 mg/kg + T sc 0.5 mg/kg): 93 ± 10 mg
